ChEMBL document CHEMBL3232858, “Antiangiogenic activity of hypoxylonol C” (J Nat Prod, 2014)
Active and inactive are the calls of the source.

Assays:
Conditions in all cases: Homo sapiens
HUVEC [1] = assay: Antiangiogenic activity in HUVEC assessed as reduction of VEGF-induced cyclins A2 and B1 mRNA level at 20 uM after 24 hrs by RT-PCR analysis; type: functional, cell-based
HUVEC [2] = assay: Antiangiogenic activity in HUVEC assessed as inhibition of VEGF-induced tube formation after 11 days; type: functional, cell-based
HUVEC [3] = assay: Antiangiogenic activity in HUVEC assessed as reduction of VEGF-induced tube length at 1 to 20 uM after 11 days; type: functional, cell-based
HUVEC [4] = assay: Antiangiogenic activity in HUVEC assessed as inhibition of VEGF-induced tube formation at 1 to 20 uM after 11 days; type: functional, cell-based
HUVEC [5] = assay: Antiangiogenic activity in HUVEC assessed as inhibition of VEGF-induced cell migration after 22 hrs
HUVEC [6] = assay: Antiangiogenic activity in HUVEC assessed as reduction of VEGF-induced vascular endothelial cadherin mRNA level at 20 uM after 24 hrs by RT-PCR analysis; type: functional, cell-based
HUVEC [7] = assay: Antiangiogenic activity in HUVEC assessed as reduction of VEGF-induced integrins alpha3 and beta1 mRNA level at 20 uM after 24 hrs by RT-PCR analysis; type: functional, cell-based
HUVEC [8] = assay: Antiangiogenic activity in HUVEC assessed as reduction of VEGF-induced CDK1 mRNA level at 20 uM after 24 hrs by RT-PCR analysis; type: functional, cell-based
HUVEC [9] = assay: Antiangiogenic activity in HUVEC assessed as inhibition of VEGF-induced cell migration at 1 to 20 uM after 22 hrs

O=C1C[C@H]2C(=C3c4c2ccc(O)c4[C@@H](O)C[C@@H]3O)c2cccc(O)c21
active: Activity (HUVEC [1]) | inhibition (HUVEC [2]) Dose-dependent effect | inhibition (HUVEC [3]) | inhibition (HUVEC [4]) | inhibition (HUVEC [5]) Dose-dependent effect | Activity (HUVEC [6]) | Activity (HUVEC [7]) | Activity (HUVEC [8]) | inhibition (HUVEC [9])
